Article PMC12484987 (Scientific Reports, 2025)
“And” between values parts separate entries of the source, which are not always exact repeats. Equal entries are not always repeated. Where two headings read alike, the source gives them in different places.

How the values were obtained:
[1] = target: T1, HIV-1 RT (Human immunodeficiency virus type 1 group M subtype B, UniProt P04585); conditions: cited from earlier work
[2] = system: S102 (Thai liver cancer); assay: cells; conditions: Homo sapiens, 48 h, read-out: IC50 cytotoxic activity
[3] = system: HepG2 (Hepatocarcinoma); conditions: for Selectivity index SI = IC50(normal cell)/IC50(cancer cell line): MRC-5 vs HepG2; for Percentage cytotoxicity: HepG2, at maximum tested concentration of 50 µg/mL
[4] = system: A549 (Lung carcinoma); conditions: for Selectivity index SI = IC50(normal cell)/IC50(cancer cell line): MRC-5 vs A549; for Percentage cytotoxicity: A549, at maximum tested concentration of 50 µg/mL
[5] = system: HuCCA-1 (Cholangiocarcinoma); conditions: for Selectivity index SI = IC50(normal cell)/IC50(cancer cell line): MRC-5 vs HuCCA-1; for Percentage cytotoxicity: HuCCA-1, at maximum tested concentration of 50 µg/mL
[6] = system: MOLT-3 (Acute lymphoblastic leukemia); conditions: for Selectivity index SI = IC50(normal cell)/IC50(cancer cell line): MRC-5 vs MOLT-3; for Percentage cytotoxicity: MOLT-3, at maximum tested concentration of 50 µg/mL
[7] = system: HL-60 (promyeloblast); conditions: for Selectivity index SI = IC50(normal cell)/IC50(cancer cell line): MRC-5 vs HL-60; for Percentage cytotoxicity: HL-60, at maximum tested concentration of 50 µg/mL
[8] = system: T47-D (Hormone-dependent breast cancer); conditions: for Selectivity index SI = IC50(normal cell)/IC50(cancer cell line): MRC-5 vs T47-D; for Percentage cytotoxicity: T47-D, at maximum tested concentration of 50 µg/mL
[9] = system: MDA-MB-231 (Hormone-independent breast cancer); assay: cells; conditions: Homo sapiens, MDA-MB-231, 48 h, read-out: IC50 cytotoxic activity
[10] = system: T47-D (Hormone-dependent breast cancer); assay: cells; conditions: Homo sapiens, T47D, 48 h, read-out: IC50 cytotoxic activity
[11] = system: HL-60 (promyeloblast); assay: cells; conditions: Homo sapiens, HL-60, 48 h, read-out: IC50 cytotoxic activity
[12] = system: MOLT-3 (Acute lymphoblastic leukemia); assay: cells; conditions: Homo sapiens, MOLT-3, 48 h, read-out: IC50 cytotoxic activity
[13] = system: HeLa (Cervical carcinoma); assay: cells; conditions: Homo sapiens, 48 h, read-out: IC50 cytotoxic activity
[14] = system: HepG2 (Hepatocarcinoma); assay: cells; conditions: Homo sapiens, HepG2, 48 h, read-out: IC50 cytotoxic activity
[15] = system: HuCCA-1 (Cholangiocarcinoma); assay: cells; conditions: Homo sapiens, HuCC-A1, 48 h, read-out: IC50 cytotoxic activity
[16] = system: A549 (Lung carcinoma); assay: cells; conditions: Homo sapiens, A549, 48 h, read-out: IC50 cytotoxic activity
[17] = system: S102 (Thai liver cancer); conditions: for Selectivity index SI = IC50(normal cell)/IC50(cancer cell line): MRC-5 vs S102; for Percentage cytotoxicity: S102, at maximum tested concentration of 50 µg/mL
[18] = in vitro; conditions: human, MRC-5 cells (normal embryonic lung cells)
[19] = system: H69AR (Lung cancer, multidrug resistance); assay: cells; conditions: Homo sapiens, 48 h, read-out: IC50 cytotoxic activity
[20] = system: HeLa (Cervical carcinoma); conditions: for Selectivity index SI = IC50(normal cell)/IC50(cancer cell line): MRC-5 vs HeLa; for Percentage cytotoxicity: HeLa, at maximum tested concentration of 50 µg/mL
[21] = system: H69AR (Lung cancer, multidrug resistance); conditions: for Selectivity index SI = IC50(normal cell)/IC50(cancer cell line): MRC-5 vs H69AR; for Percentage cytotoxicity: H69AR, at maximum tested concentration of 50 µg/mL
[22] = system: MDA-MB-231 (Hormone-independent breast cancer); conditions: for Selectivity index SI = IC50(normal cell)/IC50(cancer cell line): MRC-5 vs MDA-MB-231; for Percentage cytotoxicity: MDA-MB-231, at maximum tested concentration of 50 µg/mL
[23] = system: MRC-5 (normal embryonic lung cell); conditions: for Percentage cytotoxicity: MRC-5, at maximum tested concentration of 50 µg/mL; for toxicity toward normal embryonic lung cells (MRC-5), in words: MRC-5, up to 50 µg/mL
[24] = target: T1, HIV-1 RT; assay: HIV-1 RT inhibition assay; format: biochemical

IC50 at 48 h [18] [µM]	SMILES	IC50 [2] [µM]	Selectivity index SI = IC50(normal cell)/IC50(cancer cell line) [3]	Selectivity index SI = IC50(normal cell)/IC50(cancer cell line) [4]	Selectivity index SI = IC50(normal cell)/IC50(cancer cell line) [5]	Selectivity index SI = IC50(normal cell)/IC50(cancer cell line) [6]	Selectivity index SI = IC50(normal cell)/IC50(cancer cell line) [7]	Selectivity index SI = IC50(normal cell)/IC50(cancer cell line) [8]	IC50 [9] [µM]	IC50 [10] [µM]	IC50 [11] [µM]	IC50 [12] [µM]	IC50 [13] [µM]	IC50 [14] [µM]	IC50 [15] [µM]	IC50 [16] [µM]	Selectivity index SI = IC50(normal cell)/IC50(cancer cell line) [17]	IC50 [19] [µM]	Selectivity index SI = IC50(normal cell)/IC50(cancer cell line) [20]	Selectivity index SI = IC50(normal cell)/IC50(cancer cell line) [21]	also measured
–	Cc1cc(C#N)cc(C)c1Oc1cc(Nc2ccc(C#N)cn2)nc2ccccc12 [4-(2’,6’-dimethyl-4’-cyanophenoxy)−2-(5’’-cyanopyridin-2’’ylamino)quinoline]	–	–	–	–	–	–	–	–	–	–	–	–	–	–	–	–	–	–	–	percentage inhibition against HIV-1 RT ([1]; quinolines of the previous publication): 45% and 45.1%; IC50 ([1]; read-out: IC50 against HIV-1 RT, quinolines of the previous publication): 1.22 µM
–	N#Cc1ccc(Nc2cc(Oc3ccc(C#N)cc3)c3ccccc3n2)cc1 [4-(4’-cyanophenoxy)−2-(4’’-cyanophenyl)-aminoquinoline]	–	–	–	–	–	–	–	–	–	–	–	–	–	–	–	–	–	–	–	percentage inhibition against HIV-1 RT ([1]; previous study): 39.71%
68.1 ± 1.1	Cc1cc(C=O)cc(C)c1Oc1cc(Oc2c(C)cc(C=O)cc2C)c2cnccc2n1 [Compound 13a, 2,4-di-(2ˊ,6ˊ-dimethyl-4ˊ-formylphenoxy)−1,6-naphthyridine]	69.8 ± 2.8	1.12	0.64	1.61	6.03	3.98	1.90	56.3 ± 3.7	35.9 ± 2.1	17.1 ± 2.4	11.3 ± 2.7	24.1 ± 0.4	60.7 ± 1	42.2 ± 2.6	107 ± 2.6	0.98	91.8 ± 2.9	2.83	0.74	Selectivity index SI = IC50(normal cell)/IC50(cancer cell line) [22]: 1.21
> 119	Cc1cc(C#N)cc(C)c1Oc1cc(Oc2c(C)cc(C#N)cc2C)c2cnccc2n1 [Compound 13b, 2,4-di-(2ˊ,6ˊ-dimethyl-4ˊ-cyanophenoxy)−1,6-naphthyridine]	103 ± 4.4	> 1.59	> 3.29	> 3.67	> 10.52	> 1.46	> 3.49	73.2 ± 8.1	34.1 ± 2.2	81.5 ± 19.5	11.3 ± 2.2	24.4 ± 2.5	74.7 ± 13.3	32.4 ± 2.7	36.1 ± 0.6	> 1.15	76 ± 6.54	> 4.87	> 1.56	Percentage cytotoxicity [23]: 43%; toxicity toward normal embryonic lung cells (MRC-5), in words [23]: non-toxic; Selectivity index SI = IC50(normal cell)/IC50(cancer cell line) [22]: > 1.62
65.3 ± 2.1	Cc1cc(C=O)cc(C)c1Oc1cc(Oc2c(C)cc(C=O)cc2C)c2ccncc2n1 [Compound 14a, 2,4-di-(2ˊ,6ˊ-dimethyl-4ˊ-formylphenoxy)−1,7-naphthyridine]	67.6 ± 2.2	1.21	1.07	3.01	6.80	6.28	2.50	49.4 ± 6.7	26.1 ± 5	10.4 ± 0.8	9.6 ± 1.1	12.2 ± 0.7	53.9 ± 3.4	21.7 ± 1.6	60.8 ± 1	0.97	52.2 ± 1.6	5.35	1.25	Selectivity index SI = IC50(normal cell)/IC50(cancer cell line) [22]: 1.32
> 119	Cc1cc(C#N)cc(C)c1Oc1cc(Oc2c(C)cc(C#N)cc2C)c2ccncc2n1 [Compound 14b, 2,4-di-(2ˊ,6ˊ-dimethyl-4ˊ-cyanophenoxy)−1,7-naphthyridine]	> 119	–	–	–	–	–	–	> 119	> 119	> 119	> 119	> 119	> 119	> 119	> 119	–	> 119	–	–	Percentage cytotoxicity [3]: 34%; Percentage cytotoxicity [4]: 8%; Percentage cytotoxicity [5]: 0%; Percentage cytotoxicity [6]: 16%; Percentage cytotoxicity [7]: 24%; Percentage cytotoxicity [8]: 0%; Percentage cytotoxicity [17]: 6%; Percentage cytotoxicity [23]: 0%; toxicity toward normal embryonic lung cells (MRC-5), in words [23]: non-toxic; Percentage cytotoxicity [20]: 24%; Percentage cytotoxicity [21]: 0%; Percentage cytotoxicity [22]: 22%
95.6 ± 6	O=C1Nc2ccc(Cl)cc2[C@@](C#CC2CC2)(C(F)(F)F)O1 [EFV, efavirenz, reference compound]	–	–	–	–	–	–	–	–	–	–	–	–	–	–	–	–	–	–	–	–
> 188	Cc1ccnc2c1NC(=O)c1cccnc1N2C1CC1 [NVP, nevirapine, reference compound]	> 188	–	–	–	–	–	–	> 188	> 188	> 188	> 188	> 188	> 188	> 188	> 188	–	> 188	–	–	Percentage cytotoxicity [3]: 15%; Percentage cytotoxicity [4]: 18%; Percentage cytotoxicity [5]: 11%; Percentage cytotoxicity [6]: 29%; Percentage cytotoxicity [7]: 3%; Percentage cytotoxicity [8]: 14%; Percentage cytotoxicity [17]: 3%; Percentage cytotoxicity [23]: 1%; Percentage cytotoxicity [20]: 34%; Percentage cytotoxicity [21]: 8%; Percentage cytotoxicity [22]: 9%
> 137	Cc1cc(/C=C/C#N)cc(C)c1Nc1ccnc(Nc2ccc(C#N)cc2)n1 [RPV, rilpivirine, reference compound]	–	–	–	–	–	–	–	–	–	–	4.3 ± 0.5	–	–	–	> 137	–	–	–	–	Percentage cytotoxicity [4]: 42%; Percentage cytotoxicity [23]: 14%; IC50 [24]: 0.063 µM; inhibition at 1 µM ([24]; read-out: Inhibitory activity (%) against HIV-1 RT): 97.1%
3.1 ± 0.5	COc1cccc2c1C(=O)c1c(O)c3c(c(O)c1C2=O)C[C@@](O)(C(=O)CO)C[C@@H]3O[C@H]1C[C@H](N)[C@H](O)[C@H](C)O1 [doxorubicin, reference compound]	2.2	5.17	5.17	3.44	155	31	2.58	2.5 ± 0.1	1.2	0.1	0.02	0.4	0.6 ± 0.02	0.9 ± 0.1	0.6 ± 0.1	1.41	–	7.75	0.09	Selectivity index SI = IC50(normal cell)/IC50(cancer cell line) [22]: 1.24
–	COc1cc([C@@H]2c3cc4c(cc3[C@@H](O[C@@H]3O[C@@H]5CO[C@@H](C)O[C@H]5[C@H](O)[C@H]3O)[C@H]3COC(=O)[C@H]23)OCO4)cc(OC)c1O [etoposide, reference compound]	–	–	–	–	–	–	–	–	–	0.8 ± 0.1	0.03 ± 0.02	–	–	–	–	–	–	–	–	–
